Measured values published in patent publication US10806783B2, “Vaccine compositions” (priority 2014, dated 2020).

Tested on: Influenza virus
Assay type: in vivo
Settings: Example 4, FIG. 3; BALB-c mice, subcutaneous, day 0 and day 21; various time points; 2 μg antigen, freeze-dried and stored at 45° C.

**Q.** `CN(C)CC(=O)O` [dimethylglycine, Dimethylglycine] was tested. Which “HIA titre (effect with different excipients)” value did it give?
**A.** The value was “antigen sparing effect and acceleration of onset of immunity observed with polyethyleneimine are also observed”.
